Measurements published in patent US20160102052A1, “Use of Cysteamine in Treating Infections caused by Yeasts/Moulds” (priority 2014, published 2016).

Test system: Candida albicans 73/025
Experiment: Minimum inhibitory concentration test of cysteamine (Lynovex, NM001), CLSI M27-A3
Format: cell-based
Settings: vulvovaginal isolate 73/025; RPMI-1640, 35° C., read at 24 h and 48 h
Method: The aim of the experiment was to determine the MIC of Lynovex (NM001) against vulvovaginal isolate Candida albicans 73/025. Plates were prepared which contain a serial doubling dilution of Lynovex (NM001) at 2× final concentration. The cultures were then prepared in 2×RPMI-1640, according to the CLSI M27-A3 protocol, and mixed in equal volumes in the plate resulting in 1×RPMI-1640, the concentration of compound mentioned below, and the CLSI standard inoculum for C. albicans. These were incubated at 35° C. and read at 24 h and 48 h on the BioTek plate reader.
• 1. Culture of Candida albicans grown overnight at 30° C. • 2. Culture removed from incubator. Add 2 ml sterile dH2O to the overnight culture and wash the cells from the surface of the agar. Cells placed in fresh bijou tube. • 3. Serial doubling dilution carried out and measured against same volume of MacFarland Standard • a. 100 μl culture added to well A1 of microtitre plate. • b. 100 μl sterile dH2O added to wells A2-A11. • c. 100 μl culture added to well A2 of microtitre plate and mixed well resulting in a 1 in 2 dilution. • d. 100 μl taken from A2 and added to A3 on plate and mixed well resulting in a 1 in 4 dilution. • e. This is continued to A11 where 100 μl is removed and discarded. • f. […] Plate read at OD530 on BioTek • h. […]
• 1. […] The plate is read in the BioTek at OD530. • 3. […]

For `NCCS` [NM001, cysteamine], the “growth of Candida albicans” value was “inhibited the growth”.
